pIC50: −log10 of the molar value.
What was measured:
ClpP1P2 (ClpP1) = ClpP1P2 (ClpP1) (Mycobacterium tuberculosis, UniProt P9WPC3+P9WPC5); format: biochemical
[1] = test system: Nc1ncnc2c1ncn2[C@@H]1O[C@H](COP(=O)(O)OP(=O)(O)OP(=O)(O)O)[C@@H](O)[C@H]1O; test: purified protein

ClpP1P2 (ClpP1), sequence (P9WPC5 whole entry, looked up): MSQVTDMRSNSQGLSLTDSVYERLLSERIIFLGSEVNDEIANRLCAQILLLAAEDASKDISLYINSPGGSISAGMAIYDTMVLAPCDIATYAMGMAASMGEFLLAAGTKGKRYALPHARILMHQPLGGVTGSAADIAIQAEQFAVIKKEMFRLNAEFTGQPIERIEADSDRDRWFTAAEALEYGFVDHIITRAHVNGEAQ
ClpP1P2 (ClpP1), sequence (P9WPC3 whole entry, looked up): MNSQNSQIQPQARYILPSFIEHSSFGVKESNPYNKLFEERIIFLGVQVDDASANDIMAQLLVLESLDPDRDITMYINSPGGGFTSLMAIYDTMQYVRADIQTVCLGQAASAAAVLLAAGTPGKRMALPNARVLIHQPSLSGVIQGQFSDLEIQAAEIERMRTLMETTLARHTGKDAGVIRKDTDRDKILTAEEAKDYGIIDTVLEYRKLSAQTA

Compound | pIC50 (ClpP1P2 (ClpP1)) | Km [1]
O=c1oc(Cl)c(Cl)c2ccccc12 [DCC, 3,4-Dichloroisocoumarin] | 4.10 | 
ClpC1 (Mycobacterium tuberculosis H37Rv) |  | 1400 ± 100 µM
